In one data set the test system is Aspergillus brasiliensis. The experiment in a line: Minimum Inhibitory Concentration (MIC) test, alkanediol mixtures. It counts as cell-based. As to conditions: for MICB: Comp. B alone; for MICA: Comp. A alone. As for the experimental part:
(§1) The Minimum Inhibitory Concentration (MIC) test is a test on growth inhibition. The estimation of MICs is executed in 96 well plates. Through the comparison of bacterial growth with positive and negative controls via optical density (OD), different concentrations of given test substances are evaluated.
(§2) Bacteria were cultivated under adjusted conditions based on information of the German Collection of Microorganisms and Cell Cultures (DSMZ) and stored in 50% glycerol prior to use. Afterwards, the following method was applied: Growth medium (according to microorganism) was added to each well of the microplate. Then, the test-substances were added in different concentrations, positive controls (water controls only with medium) and negative controls (benchmarks according to organism). Finally, the microorganisms were added in a concentration of 10^6 CFU/ml (CFU=colony forming units). The incubation of the microplates was carried out at appropriate conditions.
(§3) According to the resulting growth, substance concentrations are labelled either as inhibiting or not and MIC is defined as the lowest concentration where a complete growth inhibition is visible. Experiments at concentration limits (highest concentration labelled as growth and lowest concentration labelled as inhibiting) are performed at least twice.
(§4) Minimum Inhibitory Concentration (MIC) are given in ppm.
To verify that the tested combinations act synergistically against microorganisms of the natural microbiota of mammalian skin, a corresponding experiment was conducted with Aspergillus brasiliensis, a well-known pathogen on the skin. The synergistic activities of different alkanediol mixtures including a 1,2-alkanediol (substance A) and a 2,3-alkanediol (substance B) in ratios as specified in the following Table 5 were determined by measuring the MIC of the mixture as indicated in methods section.
In order to calculate the synergy index with MIC values, the Kull equation (I) was used as follows:
SI=(MICmix×PA)/MICA+(MICmix×PB)/MICB
wherein • SI is the Synergy Index according to Kull • MICA is the MIC value for Substance A in ppm • MICB is the MIC value for Substance B in ppm • MICmix is the MIC value for the mixture of substances A and B and C in ppm • PA is the proportion of the substance A in the mixture • PB is the proportion of the substance B in the mixture

Data set [1] can be described thus: Solubility in sunflower oil. It counts as physicochemical. As to conditions: result in words.
A further data set relates to Staphylococcus aureus. The experiment in a line: Minimum Inhibitory Concentration (MIC) test, synergy with antimicrobials. It counts as cell-based. The following applies: for MICC: MIC value for Substance C alone; for MICA: MIC value for Substance A alone; for MICB: MIC value for Substance B alone. As for the experimental part:
as §1, §2, §3, §4
The synergistic activity of different combinations of 1,2-nonanediol (C9 nonanediol) and 1,2-heptanediol (C7 heptanediol) as components A and C in combination with different antimicrobial compounds (component B) was determined by measuring the corresponding Minimum Inhibitory Concentrations (MIC).
To verify that the tested combinations act synergistically against microorganisms of the natural microbiota of mammalian skin, a corresponding experiment was conducted with Staphylococcus aureus, a well-known pathogen on the skin. The synergistic activities of 1,2-nonanediol (1,2-C9), 1,2-heptanediol (1,2-C7), 2,3-nonanediol (2,3-C9), 2,3-heptanediol (2,3-C7) and different antimicrobial compounds were determined by measuring the MIC of the mixture as indicated above.
In order to calculate the synergy index with MIC values, the Kull equation (equation 6) was used as follows:
SI=(MICmix×PA)/MICA+(MICmix×PB)/MICB+(MICmix×PC)/MICC Equation (6): Minimum Inhibitory Concentration
wherein • SI is the Synergy Index according to Kull • MICA is the MIC value for Substance A in ppm • MICB is the MIC value for Substance B in ppm • MICC is the MIC value for Substance C in ppm • MICmix is the MIC value for the mixture of substances A and B and C in ppm • PA is the proportion of the substance A in the mixture • PB is the proportion of the substance B in the mixture • PC is the proportion of the substance C in the mixture

Data set [2] has as its system reactive oxygen species (ROS) on ex vivo skin. The experiment in a line: DCF assay, ROS score on ex vivo skin biopsies. It counts as cell-based. The following applies: Cumene hydroperoxide 0.5M. As for the experimental part: A dichlorofluorescein test (DCF) assay was performed in order to determine the amount of reactive oxygen species (ROS) on ex vivo skin treated with different test samples in a lipophilic or an aqueous/alcoholic system as described below.
DCF assay—assay principle: Ex vivo skin was incubated with 2′,7′-dichlorodihydrofluorescein diacetate at 37° C., 5% CO2. After PBS washing, the samples were exposed or not to cumene hydroperoxide. Immediately after exposure, ex vivo skin samples were frozen in liquid nitrogen and 5 μm cryostat sections were made and fixed with acetone to allow the visualization of fluorescence generated by ROS in cells of the reconstructed skins. The resulting fluorescence was measured at EX/EM 504/524 nm. Green fluorescence was quantified in ex vivo skin using ImageJ software. The depth of immunostaining was measured as follows: green DCFH-DE positive cells were automatically detected using Histolab software and the distance between dermal epidermal junction and the deepest positive cells were measured in each condition. Means were compared using a student's test. Two means were considered statistically different when p<0.005.
The image acquisition was performed by using Olympus BX51 microscope and Olympus DP70 camera. For each skin sample two skin sections have been taken and the related fluorescent images acquired and analysed. Thus, for each test condition, 12 images have been acquired and analysed (i.e. 12 data). The analysis of fluorescence has been performed within the dermis area. For each image the upper dermis has been analysed by evaluating the fluorescence through modified Image-J application (NIH, USA). The analysed area is selected from the upper part by following the perimeter of the basal lamina, to the deep dermis, by carefully avoiding the risk of including irregularities and agglomerates, such as blood vessels, sebaceous glands, hair follicles. The obtained value has been normalized upon the dimension of the selected area.
In addition, as positive control an AOX mix is always co-tested, i.e., as benchmark for the ROS analysis. The AOX mix is a mixture of the following antioxidants: 15% vitamin C, 1% vitamin E, 0.5% ferulic acid in a EtOH/H2O (50:50) mixture.
ROS score method description: The pigmentation score is based on the following process steps: • (1) Analysis of the image based on pixel grey intensities; • (2) Selection of an informative area excluding the pixel area not covered from tissue; • (3) Transformation of pixel grey intensities in degrees of L*; • (4) Normalization of the obtained values on the ratio between the selected area and the area of the slide.
An increased level of ROS (reactive oxygen species) led to an increased amount of fluorescence. […]

Take `CCCC(O)C(C)O` (stereo not drawn) [2,3-C6, 2,3-hexanediol]: the MICB in the data set on Aspergillus brasiliensis is 20000 ppm.

For `CCCCCC(O)C(C)O` (stereo not drawn) [2,3-C8, 2,3-octanediol], the “Solubility in sunflower oil / oil phase” value in data set [1] is listed as “good solubility”. Besides, the MICB with Aspergillus brasiliensis was found to be 2500 ppm.

Turning to `CCCCC(O)C(C)O` (stereo not drawn) [2,3-C7, 2,3-heptanediol], the MICB in the data set on Aspergillus brasiliensis was 7500 ppm. Further, the MICC with Staphylococcus aureus worked out at 20000 ppm.

On to `O=C(CCc1ccc(O)cc1)Nc1ccccc1C(=O)O` [50 ppm DHAvD, Dihydroavenanthramide D], for which, in data set [2] (ex vivo skin, mean of 12 tests), the “ROS score, Mean Score” value is 1.72. In addition, in data set [2] (ROS score), the “D percent vs. - A cumene” value is recorded as −14%, the “D percent vs. untreated cumene” value is recorded as −21% and the “D percent vs. untreated/No cumene” value amounted to 1645%.

As for `CCCCC(O)CO` (stereo not drawn) [1,2-C6, 1,2-hexanediol], the MICA in the data set on Aspergillus brasiliensis came to 7500 ppm.

Turning to `CCCCCCCC(O)CO` (stereo not drawn) [1,2-C9, 1,2-nonanediol], the MICA came out at 500 ppm in the data set on Aspergillus brasiliensis and 1000 ppm in the data set with Staphylococcus aureus.

As for `CCCCCCC(O)CO` (stereo not drawn) [1,2-C8, 1,2-octanediol], the “Solubility in sunflower oil / oil phase” value in data set [1] is reported as “tends to precipitate or recrystallize”. For the same compound, the MICA in the data set on Aspergillus brasiliensis was 2500 ppm.

Turning to `OCc1ccccc1` [Benzyl alcohol, reference compound], the MICB in the data set on Staphylococcus aureus was found to be 5000 ppm.

In the case of `CCCCCCC(O)C(C)O` (stereo not drawn) [2,3-C9, 2,3-nonanediol], in the data set on Aspergillus brasiliensis, the MICB worked out at 1000 ppm. Moreover, the MICC in the data set with Staphylococcus aureus stood at 2500 ppm.

Take `CCCCCC(O)CO` (stereo not drawn) [1,2-C7, 1,2-heptanediol]: the MICA was found to be 5000 ppm in the data set with Aspergillus brasiliensis and 7500 ppm in the data set on Staphylococcus aureus.

As for `CCCCCCCC(=O)NO` [Capryl hydroxamic acid, reference compound], the MICB in the data set on Staphylococcus aureus was 1000 ppm.

Consider o-Cymen-5-ol [reference compound], for which the MICB with Staphylococcus aureus was 250 ppm.

These data come from patent US20230295066A1, “Process for the Efficient Preparation of (Bio)-Alkanediols” (Symrise AG, priority 2020, published 2023).
